ChEMBL document CHEMBL5331077, “Combining pharmacophore models derived from DNA-encoded chemical libraries with structure-based exploration to predict Tankyrase 1 inhibitors” (Eur J Med Chem, 2023)

Target: T1, Poly [ADP-ribose] polymerase tankyrase-1 (Homo sapiens, UniProt O95271)
T1 sequence (O95271 whole entry): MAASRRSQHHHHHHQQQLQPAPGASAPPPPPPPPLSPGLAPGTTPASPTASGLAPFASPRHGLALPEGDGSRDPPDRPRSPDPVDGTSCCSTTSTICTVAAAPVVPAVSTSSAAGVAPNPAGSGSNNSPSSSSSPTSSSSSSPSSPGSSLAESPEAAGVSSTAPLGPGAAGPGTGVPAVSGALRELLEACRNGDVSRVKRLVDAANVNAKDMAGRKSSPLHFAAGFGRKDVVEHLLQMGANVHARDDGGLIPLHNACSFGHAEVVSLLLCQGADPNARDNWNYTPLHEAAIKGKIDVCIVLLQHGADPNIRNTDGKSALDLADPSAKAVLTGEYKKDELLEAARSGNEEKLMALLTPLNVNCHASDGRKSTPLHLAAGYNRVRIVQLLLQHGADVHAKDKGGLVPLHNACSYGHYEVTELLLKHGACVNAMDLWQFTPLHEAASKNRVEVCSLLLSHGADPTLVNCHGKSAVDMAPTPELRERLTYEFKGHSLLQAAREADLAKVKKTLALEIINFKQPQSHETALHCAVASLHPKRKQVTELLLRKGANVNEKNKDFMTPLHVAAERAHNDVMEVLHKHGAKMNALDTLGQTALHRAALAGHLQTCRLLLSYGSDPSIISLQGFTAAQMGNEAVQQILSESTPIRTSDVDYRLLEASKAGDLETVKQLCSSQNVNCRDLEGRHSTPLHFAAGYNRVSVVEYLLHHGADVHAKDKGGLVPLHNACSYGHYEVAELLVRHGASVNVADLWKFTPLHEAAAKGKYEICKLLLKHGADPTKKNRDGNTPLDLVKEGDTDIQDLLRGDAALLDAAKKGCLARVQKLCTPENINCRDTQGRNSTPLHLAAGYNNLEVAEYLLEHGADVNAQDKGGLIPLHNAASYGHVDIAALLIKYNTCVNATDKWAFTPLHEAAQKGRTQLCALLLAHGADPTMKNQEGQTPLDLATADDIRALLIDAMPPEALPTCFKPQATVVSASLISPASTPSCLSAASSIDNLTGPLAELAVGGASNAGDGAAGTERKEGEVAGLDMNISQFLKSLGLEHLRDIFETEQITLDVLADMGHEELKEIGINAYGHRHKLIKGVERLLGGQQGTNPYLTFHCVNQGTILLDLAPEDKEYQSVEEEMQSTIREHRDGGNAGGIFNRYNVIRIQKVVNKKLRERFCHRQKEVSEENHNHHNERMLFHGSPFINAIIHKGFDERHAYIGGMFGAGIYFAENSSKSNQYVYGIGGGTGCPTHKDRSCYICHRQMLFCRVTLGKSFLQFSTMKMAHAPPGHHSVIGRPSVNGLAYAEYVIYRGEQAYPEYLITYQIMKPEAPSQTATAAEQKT
Test: Inhibition of TNKS1 (unknown origin) using biotinylated NAD as substrate preincubated for 30 mins followed by substrate addition and measured after 1 hr by BioTek synergy 2 microplate reader analysis

Row | Structure (SMILES) | IC50 [nM]
1 | Cc1cc(OCC(=O)NCCNC(=O)c2cccc(COc3ccccc3C(N)=O)c2)c2c3c(c(=O)oc2c1)CCC3 | 2
2 | CNC(=O)[C@H](CNC(=O)CCn1c(=O)[nH]c(=O)c2ccccc21)NC(=O)c1cnc2ccccc2c1 | 0.8
